The values below come from patent publication EP1028947B1, “H3 RECEPTOR LIGANDS OF THE PHENYL-ALKYL-[…]” (SCHERING CORPORATION, priority 1997, dated 1999).

Data set [1] has as its target T1, H3 receptors (Cavia porcellus, UniProt Q9JI35).
T1 construct: The source of the H3 receptors in this experiment was guinea pig brain; from tissue; host or cells: guinea pig brain membranes
The data set is described as follows: H3-Receptor Binding Assay. As to conditions: guinea pig brain membranes; 3 nM [3H]R-a-methylhistamine or 3 nM [3H]Na-methylhistamine; 30°C for 30 min; HCl salt of the compound. Here is the method: H3-Receptor Binding Assay
The source of the H3 receptors in this experiment was guinea pig brain. The animals weighed 400-600 g. The brain tissue was homogenized using a Polytron in a solution of 50 mM Tris, pH 7.5. The final concentration of tissue in the homogenization buffer was 10% w/v. The homogenates were centrifuged at 1,000 x g for 10 min. in order to remove clumps of tissue and debris. The resulting supematants were then centrifuged at 50,000 x g for 20 min. in order to sediment the membranes, which were next washed three times in homogenization buffer (50,000 x g for 20 min. each). The membranes were frozen and stored at -70°C until needed.
The compound to be tested was dissolved in DMSO and then diluted into the binding buffer (50 mM Tris, pH 7.5) such that the final concentration was 2 µg/ml with 0.1% DMSO. Membranes were then added (400 µg of protein) to the reaction tubes. The reaction was started by the addition of 3 nM [^3H]R-a-methylhistamine (8.8 Ci/mmol) or 3 nM [^3H]N^a-methylhistamine (80 Ci/mmol) and continued under incubation at 30°C for 30 min. Bound ligand was separated from unbound ligand by filtration, and the amount of radioactive ligand bound to the membranes was quantitated by liquid scintillation spectrometry. All incubations were performed in duplicate and the standard error was always less than 10%. The Compound was serially diluted to determine a Ki (nM). […]

A short description of data set [2]: Blood levels of the compound (no method described). As to conditions: compared with the preferred compounds of WO 95/14007; statement in words, no data. Format: in vivo.

T1 sequence (Q9JI35 whole entry): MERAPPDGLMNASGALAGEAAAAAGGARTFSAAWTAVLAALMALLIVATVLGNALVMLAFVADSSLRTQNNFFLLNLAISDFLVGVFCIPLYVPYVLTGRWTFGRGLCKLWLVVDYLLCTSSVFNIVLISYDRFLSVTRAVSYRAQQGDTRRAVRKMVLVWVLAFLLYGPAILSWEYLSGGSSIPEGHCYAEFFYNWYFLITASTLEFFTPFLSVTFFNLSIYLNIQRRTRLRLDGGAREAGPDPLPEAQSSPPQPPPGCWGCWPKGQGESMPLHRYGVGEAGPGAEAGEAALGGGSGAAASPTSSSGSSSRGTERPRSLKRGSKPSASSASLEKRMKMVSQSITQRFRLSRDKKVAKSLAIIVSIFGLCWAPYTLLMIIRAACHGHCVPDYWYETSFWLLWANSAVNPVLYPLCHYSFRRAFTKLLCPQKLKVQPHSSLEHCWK

For the compound `O=C(NCc1ccc(Cc2c[nH]cn2)cc1)Nc1cc(Cl)cc(Cl)c1` [compound of the present invention], the inhibitory constant (Ki) (commonly a measure of affinity in units of concentration, obtained from inhibition or displacement) in data set [1] is 4 nM. Besides, the “blood levels of the compound” value in data set [2] is “higher blood levels”.
